Measurements: patent US9856279B2 (AGIOS PHARMACEUTICALS, INC, priority 2011, dated 2018)

Key:
U87MG cells = experiment: Cellular assay for IDH1m inhibitors: inhibition of 2-HG production (LC-MS, 48 hours) in U87MG cells; assay type: cell-based; details: Homo sapiens, U-87 MG, inhibition of 2-HG production, U87R132H cells; read-out: U87R132H IC50
How it was run: (§1)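 Each cell line is plated at 5000 cells/well in DMEM with 10% FBS and left overnight at 37 °C. Test compounds are then added for 48 h, after which 2-HG in the medium is determined by LC-MS; IC50 reflects 50% reduction compared with control.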

HT1080 cells = experiment: Cellular assay for IDH1m inhibitors: inhibition of 2-HG production (LC-MS, 48 hours) in HT1080 cells; assay type: cell-based; details: Homo sapiens, HT-1080; inhibition of 2-HG production, HT1080 cells; read-out: HT1080 IC50
How it was run: as §1

IDH1 R132H = IDH1 R132H (Homo sapiens, UniProt O75874, R132H); experiment: Assay for IDH1 R132H inhibitors (NADPH/aKG, resazurin detection); assay type: biochemical; details: enzyme assay of Example 12; read-out: IDH1R132H IC50
How it was run: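 Read-out is resorufin fluorescence (Ex544/Em590) 5 min after adding a 30 μM resazurin detection mix. Before that, mutant enzyme (0.2 μg/ml in its mix) ran 50 min at room temperature with compound, 8 uM NADPH and 2 mM aKG (mix levels) in Tris pH 7.5 with NaCl, MgCl2, BSA.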

IDH1 R132H, sequence (O75874 whole entry R132H): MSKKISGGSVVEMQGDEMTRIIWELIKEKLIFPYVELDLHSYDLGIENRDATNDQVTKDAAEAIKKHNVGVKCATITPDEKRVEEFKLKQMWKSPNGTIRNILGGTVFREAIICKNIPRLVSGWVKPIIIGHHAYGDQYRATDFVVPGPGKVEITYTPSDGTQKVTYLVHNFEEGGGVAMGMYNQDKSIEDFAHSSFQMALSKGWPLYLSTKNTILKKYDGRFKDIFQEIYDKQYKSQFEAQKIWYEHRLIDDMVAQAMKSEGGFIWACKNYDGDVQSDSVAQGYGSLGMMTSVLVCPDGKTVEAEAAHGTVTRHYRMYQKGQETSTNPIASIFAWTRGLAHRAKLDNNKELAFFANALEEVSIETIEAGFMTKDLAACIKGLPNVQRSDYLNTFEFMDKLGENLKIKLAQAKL

Structure (SMILES)	IC50 (U87MG cells) [nM]	IC50 (HT1080 cells) [nM]	IC50 (IDH1 R132H) [nM]
COCCC(=O)N1CCN(c2nc(C3CC3)c(-c3ccc(OC)c(F)c3)c(C)c2C#N)C[C@H]1C [Compound 323, (R)-6-cyclopropyl-5-(3-fluoro-4-methoxy-phenyl)-2-[4-(3-methoxy-propionyl)-3-methyl-piperazin-1-yl]-4-methyl-nicotinonitrile]	500 to 1000	500 to 1000	< 500
COCCC(=O)N1CCN(c2nc(C3CC3)c(-c3ccc(NC(C)=O)cc3)c(C)c2C#N)C[C@H]1C [Compound 326, (R)—N-(4-{5-cyano-2-cyclopropyl-6-[4-(3-methoxy-propionyl)-3-methyl-piperazin-1-yl]-4-methyl-pyridin-3-yl}-phenyl)-acetamide]	< 500	500 to 1000	< 500
COCCC(=O)N1CCN(c2nc(C3CC3)c(-c3ccc(CNS(C)(=O)=O)cc3)c(C)c2C#N)C[C@H]1C [Compound 330, (R)—N-(4-{5-cyano-2-cyclopropyl-6-[4-(3-methoxy-propionyl)-3-methyl-piperazin-1-yl]-4-methyl-pyridin-3-yl}-benzyl)-methanesulfonamide]	< 500	< 500	< 500
COCCC(=O)N1CCN(c2nc(C3CC3)c(-c3cccc(CNS(C)(=O)=O)c3)c(C)c2C#N)C[C@H]1C [Compound 335, (R)—N-(3-{5-cyano-2-cyclopropyl-6-[4-(3-methoxy-propionyl)-3-methyl-piperazin-1-yl]-4-methyl-pyridin-3-yl}-benzyl)-methanesulfonamide]	< 500	500 to 1000	< 500
COCCC(=O)N1CCN(c2nc(C3CC3)c(-c3ccc(CNC(C)=O)cc3)c(C)c2C#N)C[C@H]1C [Compound 340, (R)—N-(4-{5-cyano-2-cyclopropyl-6-[4-(3-methoxy-propionyl)-3-methyl-piperazin-1-yl]-4-methyl-pyridin-3-yl}-benzyl)-acetamide]	500 to 1000	500 to 1000	< 500
COCCC(=O)N1CCN(c2nc(C3CC3)c(-c3cccc4cccnc34)cc2C#N)C[C@H]1C [Compound 342, (R)-6-cyclopropyl-2-(4-(3-methoxypropanoyl)-3-methylpiperazin-1-yl)-5-(quinolin-8-yl)nicotinonitrile]	< 500	< 500	< 500
C=CC(=O)Nc1cccc(-c2cc(C#N)c(N3CCN(C(=O)CCOC)[C@H](C)C3)nc2C2CC2)c1 [Compound 343, (R)—N-(3-(5-cyano-2-cyclopropyl-6-(4-(3-methoxypropanoyl)-3-methylpiperazin-1-yl)pyridin-3-yl)phenyl)acrylamide]	< 500	< 500	< 500
COCCC(=O)N1CCN(c2nc(C3CC3)c(-c3c(C)noc3C)cc2C#N)C[C@H]1C [Compound 345, (R)-6-cyclopropyl-5-(3,5-dimethyl-isoxazol-4-yl)-2-[4-(3-methoxy-propionyl)-3-methyl-piperazin-1-yl]-nicotinonitrile]	500 to 1000	1000 to 10000	< 500
COCCC(=O)N1CCN(c2nc(C3CC3)c(-c3ccc(F)nc3)c(C)c2C#N)C[C@H]1C [Compound 346]	500 to 1000	1000 to 10000	< 500
COCCC(=O)N1CCN(c2nc(C3CC3)c(-c3ccc(C#N)cc3)c(C)c2C#N)C[C@H]1C [Compound 347, (R)-5-(4-cyano-phenyl)-6-cyclopropyl-2-[4-(3-methoxy-propionyl)-3-methyl-piperazin-1-yl]-4-methyl-nicotinonitrile]	< 500	< 500	< 500
COCCC(=O)N1CCN(c2nc(C3CC3)c(-c3cccc(NS(C)(=O)=O)c3)c(C)c2C#N)C[C@H]1C [Compound 350, (R)—N-(3-{5-cyano-2-cyclopropyl-6-[4-(3-methoxy-propionyl)-3-methyl-piperazin-1-yl]-4-methyl-pyridin-3-yl}-phenyl)-methane sulfonamide]	500 to 1000	1000 to 10000	< 500
COCCC(=O)N1CCN(c2nc(C3CC3)c(-c3c(C)noc3C)c(C)c2C#N)C[C@H]1C [Compound 351, (R)-6-cyclopropyl-5-(3,5-dimethyl-isoxazol-4-yl)-2-[4-(3-methoxy-propionyl)-3-methyl-piperazin-1-yl]-4-methyl-nicotinonitrile]	500 to 1000	1000 to 10000	< 500
COCCC(=O)N1CCN(c2nc(C3CC3)c(-c3ccc4scnc4c3)cc2C#N)C[C@H]1C [Compound 352, (R)-5-benzothiazol-5-yl-6-cyclopropyl-2-[4-(3-methoxy-propionyl)-3-methyl-piperazin-1-yl]-nicotinonitrile]	500 to 1000	1000 to 10000	< 500
COCCC(=O)N1CCN(c2nc(C3CC3)c(-c3ccc4ncccc4c3)cc2C#N)C[C@H]1C [Compound 353, (R)-6-cyclopropyl-2-[4-(3-methoxy-propionyl)-3-methyl-piperazin-1-yl]-5-quinolin-6-yl-nicotinonitrile]	500 to 1000	500 to 1000	< 500
COCCC(=O)N1CCN(c2nc(C3CC3)c(Nc3ccnc4ccccc34)cc2C#N)C[C@H]1C [Compound 356, (R)-6-cyclopropyl-2-(4-(3-methoxypropanoyl)-3-methylpiperazin-1-yl)-5-(quinolin-4-ylamino)nicotinonitrile]	1000 to 10000	1000 to 10000	< 500

Now from value to compound:

IC50 (U87MG cells) [nM]	IC50 (HT1080 cells) [nM]	IC50 (IDH1 R132H) [nM]	Structure (SMILES)
1000 to 10000	1000 to 10000	< 500	COCCC(=O)N1CCN(c2nc(C3CC3)c(-c3cc4ccccc4nc3Cl)cc2C#N)C[C@H]1C [Compound 360, (R)-5-(2-chloro-quinolin-3-yl)-6-cyclopropyl-2-[4-(3-methoxy-propionyl)-3-methyl-piperazin-1-yl]-nicotinonitrile]
500 to 1000	1000 to 10000	< 500	COCCC(=O)N1CCN(c2nc(C3CC3)c(-c3ccc4[nH]cnc4c3)cc2C#N)C[C@H]1C [Compound 361, (R)-5-(1H-benzoimidazol-5-yl)-6-cyclopropyl-2-[4-(3-methoxy-propionyl)-3-methyl-piperazin-1-yl]-nicotinonitrile]
500 to 1000	1000 to 10000	< 500	COCCC(=O)N1CCN(c2nc(C3CC3)c(-c3cccc(-c4cc[nH]n4)c3)cc2C#N)C[C@H]1C [Compound 363, (R)-6-cyclopropyl-2-[4-(3-methoxy-propionyl)-3-methyl-piperazin-1-yl]-5-[3-(1H-pyrazol-3-yl)-phenyl]-nicotinonitrile]
< 500	500 to 1000	< 500	COCCC(=O)N1CCN(c2nc(C3CC3)c(-c3ccc4ncsc4c3)cc2C#N)C[C@H]1C [Compound 364, (R)-5-benzothiazol-6-yl-6-cyclopropyl-2-[4-(3-methoxy-propionyl)-3-methyl-piperazin-1-yl]-nicotinonitrile]
500 to 1000	1000 to 10000	< 500	COCCC(=O)N1CCN(c2nc(C3CC3)c(-c3cccc4cc[nH]c34)cc2C#N)C[C@H]1C [Compound 373, (R)-6-cyclopropyl-5-(1H-indol-7-yl)-2-[4-(3-methoxy-propionyl)-3-methyl-piperazin-1-yl]-nicotinonitrile]
500 to 1000	1000 to 10000	< 500	COCCC(=O)N1CCN(c2nc(C3CC3)c(-c3cnc4[nH]ccc4c3)cc2C#N)C[C@H]1C [Compound 374, (R)-6-cyclopropyl-2-[4-(3-methoxy-propionyl)-3-methyl-piperazin-1-yl]-5-(1H-pyrrolo[2,3-b]pyridin-5-yl)-nicotinonitrile]
500 to 1000	1000 to 10000	< 500	CCOC(=O)N1CCN(c2cc(C#N)c(N3CCN(C(=O)CCOC)[C@H](C)C3)nc2C2CC2)CC1 [Compound 376, (R)-ethyl 4-(5-cyano-2-cyclopropyl-6-(4-(3-methoxypropanoyl)-3-methylpiperazin-1-yl)pyridin-3-yl)piperazine-1-carboxylate]
< 500	500 to 1000	< 500	CCS(=O)(=O)N1CCN(c2cc(C#N)c(N3CCN(C(=O)CCOC)[C@H](C)C3)nc2C2CC2)CC1 [Compound 377, (R)-6-cyclopropyl-5-(4-(ethylsulfonyl)piperazin-1-yl)-2-(4-(3-methoxypropanoyl)-3-methylpiperazin-1-yl)nicotinonitrile]
500 to 1000	500 to 1000	< 500	COCCC(=O)N1CCN(c2nc(C3CC3)c(-c3ccc(NS(C)(=O)=O)cc3)c(C)c2C#N)C[C@H]1C [Compound 380, (R)—N-(4-{5-cyano-2-cyclopropyl-6-[4-(3-methoxy-propionyl)-3-methyl-piperazin-1-yl]-4-methyl-pyridin-3-yl}-phenyl)-methane sulfonamide]
< 500	< 500	< 500	C=CC(=O)Nc1cccc(COc2cc(C#N)c(N3CCN(C(=O)CCOC)[C@H](C)C3)nc2C2CC2)c1 [Compound 381, (R)—N-(3-((5-cyano-2-cyclopropyl-6-(4-(3-methoxypropanoyl)-3-methylpiperazin-1-yl)pyridin-3-yloxy)methyl)phenyl)acrylamide]
500 to 1000	< 500	< 500	COCCC(=O)N1CCN(c2nc(C3CC3)c(OCc3cccc(NC(=O)CBr)c3)cc2C#N)C[C@H]1C [Compound 382, (R)-2-bromo-N-(3-((5-cyano-2-cyclopropyl-6-(4-(3-methoxypropanoyl)-3-methylpiperazin-1-yl)pyridin-3-yloxy)methyl)phenyl)acetamide]
